The term IC50 denotes the concentration needed to halve the response being measured.

Assay [1] deals with T1, Acyl-CoA: Cholesterol Acyltransferase (ACAT) (Rattus norvegicus, UniProt Q7TQM4).
T1 construct: Microsomes were obtained by differential centrifugation; from tissue; host or cells: liver microsomes of male Sprague Dawley rats
T1 sequence (Q7TQM4 1-524): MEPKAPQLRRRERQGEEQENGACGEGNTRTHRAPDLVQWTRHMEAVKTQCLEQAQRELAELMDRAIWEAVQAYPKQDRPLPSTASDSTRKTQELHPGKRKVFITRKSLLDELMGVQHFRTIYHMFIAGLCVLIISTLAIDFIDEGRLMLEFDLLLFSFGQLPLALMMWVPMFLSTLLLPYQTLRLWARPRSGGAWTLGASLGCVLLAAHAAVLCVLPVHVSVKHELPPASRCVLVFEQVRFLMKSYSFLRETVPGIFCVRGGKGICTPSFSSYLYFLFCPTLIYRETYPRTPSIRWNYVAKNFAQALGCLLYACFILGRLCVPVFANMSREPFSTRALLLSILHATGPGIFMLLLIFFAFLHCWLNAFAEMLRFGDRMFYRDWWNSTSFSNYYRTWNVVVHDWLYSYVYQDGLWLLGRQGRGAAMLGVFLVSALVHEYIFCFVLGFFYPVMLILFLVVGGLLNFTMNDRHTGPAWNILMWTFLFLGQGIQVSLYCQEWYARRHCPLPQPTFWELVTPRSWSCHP
As to the kind of experiment: Inhibition of acyl-CoA: cholesterol acyltransferase (ACAT) in hepatic microsomes (in vitro). The class given is biochemical, rat (male Sprague Dawley). As for the experimental part: A. Assay of the Inhibition of Acyl-CoA: Cholesterol Acyltransferase (ACAT) in Hepatic Microsomes
The ability of the compounds to inhibit ACAT, the enzyme responsible for the intracellular synthesis of cholesteryl esters, was tested as follows. Male Sprague Dawley rats weighing 150-300 g, were fed rat chow ad libitum. The animals were fasted for twenty-four hours prior to being sacrificed by decapitation. The livers were perfused in situ with 50 ml of cold 0.25M sucrose, excised, and homogenized in three volumes of 0.1M phosphate buffer, pH 7.4, that contained 0.5 mM EDTA (ethylenediaminetetraacetic acid), 1.0 mM glutathione, 0.25M sucrose and […]. Microsomes were obtained by differential centrifugation; the supernatant from an initial spin at 15,000×g for 15 minutes was centrifuged at 105,000×g for 1 hour to pellet the microsomes. The microsomes were suspended in homogenization buffer, reisolated by centrifugation, and stored at -70° C. Microsomes were used within one month of preparation.
The control assay in a final volume of 200 μl consisted of 200 μg of microsomal protein, 75 μM ^14 C-oleoyl-CoA (10,000 dpm/nmol) in 0.1M phosphate, pH 7.4, that contained 1 mM glutathione. Compounds were added in 5 μl of DMSO (dimethyl sulfoxide) and additional controls were run with DMSO only. All components, except the oleoyl-CoA, were preincubated for 15 min. at 37° C. prior to the initiation of the reaction by the addition of oleoyl-CoA. The assay was terminated after 10 min by the addition of 4 ml of chloroform:methanol (2:1, v/v). 20,000 dpm of ^3 H-cholesteryl oleate and 10 μg of unlabeled cholesteryl oleate and oleic acid were added as an internal standard and carriers, respectively. After allowing 10 min. for lipid extraction, the samples were centrifuged at 1,000×g for 10 min. to separate the solvent layers. The chloroform layer containing the neutral lipids was spotted onto a Baker SI250-Pa silica gel TLC plate and the plate developed using a hexane: diethyl ether: acetic acid (170:30:1 v/v/v) mobile phase. The lipids were visualized by their interaction with iodine vapor and the cholesteryl ester spot was scraped into a scintillation vial and counted.

Assay [2] concerns murine macrophage-like cell line J774.A1. As to the kind of experiment: Inhibition of cholesterol esterification in mammalian cells (macrophage assay). The class given is cell-based. A digest of the protocol: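 Murine J774.A1 macrophages at 37 °C received 34 μg acetylated human LDL in 10% FBS-DMEM from 24 h, compound in DMSO at 41 h, then a 0.1 mM 14C-oleic acid–BSA pulse from 43 to 45 h. Labelled cholesteryl ester was separated by TLC, counted and normalised to Lowry protein.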

Where [3] appears, read: rat hepatic microsomes, 75 μM 14C-oleoyl-CoA, pH 7.4, 37° C., read-out: In Vitro ACAT IC50.
[4] abbreviates: J774.A1 macrophages loaded with ac-LDL, 14C-oleic acid, read-out: Cholesterol Esterification IC50.
The mark [5] stands for this setting: In Vitro ACAT IC50, rat hepatic microsomes, 75 μM 14C-oleoyl-CoA, pH 7.4, 37° C.

Structures can show the parent of a compound that is named as a salt. Where two headings read alike, the source gives them in different places.

`CCCCCCCN(CCCCCSc1nc(-c2ccccc2)c(-c2ccccc2)[nH]1)C(=O)CCCC` [Example 342, N-[5-(4,5-diphenyl-1H-imidazol-2-ylthio)pentyl]-N-heptylpentanamide]: the IC50 in assay [1] (setting [3]) is 0.03 µM; in assay [2] (setting [4]), 1.6 µM.

Take `CCCCCCCN(CCCCCSc1nc(C(C)C)c(C(C)C)[nH]1)C(=O)CC1CCCCC1` [Example 347, N-[5-[4,5-bis(1-methylethyl)-1H-imidazol-2-ylthio]pentyl]-N-heptylcyclohexaneacetamide]: the IC50 was found to be 0.03 µM in assay [1] (setting [3]) and 0.3 µM in assay [2] (setting [4]).

Regarding `CCCCCCCN(CCCCCSc1nc(-c2ccc(OC)cc2)c(-c2ccc(OC)cc2)[nH]1)C(=O)CCC` [Example 348, N-[5-[4,5-bis(4-methoxyphenyl)-1H-imidazol-2-ylthio]pentyl]-N-heptylbutanamide], the half-inhibitory concentration (IC50) in assay [1] (setting [3]) is 0.7 µM; in assay [2] (setting [4]), 0.2 µM.

In the case of `CCCCCCCN(CCCCCSc1nc(-c2ccc(OC)cc2)c(-c2ccc(OC)cc2)[nH]1)C(=O)Cc1ccc(Cl)c(Cl)c1` [Example 349], the IC50 in assay [1] (setting [3]) was 0.2 µM; in assay [2] (setting [4]), 0.09 µM.

On to `CCCCCCCN(CCCCCSc1nc(-c2ccc(OC)cc2)c(-c2ccc(OC)cc2)[nH]1)C(=O)Cc1c(F)c(F)c(F)c(F)c1F` [Example 350], for which the IC50 amounted to 0.605 µM in assay [1] (setting [3]) and 0.05 µM in assay [2] (setting [4]).

Turning to `CCCCCCCN(CCCCCSc1nc(-c2ccc(OC)cc2)c(-c2ccc(OC)cc2)[nH]1)C(=O)Cc1ccc(F)cc1F` [Example 351, N-[5-[4,5-bis(4-methoxyphenyl)-1H-imidazol-2-ylthio]pentyl]-2,4-difluoro-N-heptylbenzeneacetamide], the half-maximal inhibitory concentration (IC50) in assay [1] (setting [3]) worked out at 0.25 µM; in assay [2] (setting [4]), 0.04 µM.

As for `CCCCCCCN(CCCC)CCCCCSc1nc(-c2ccccc2)c(-c2ccccc2)[nH]1` [Example 352], the half-inhibitory concentration (IC50) in assay [1] (setting [3]) was determined as 0.3 µM; in assay [2] (setting [4]), 2.2 µM.

In the case of `CCCCCCCN(CCCCCSc1nc(-c2ccc(OC)cc2)c(-c2ccc(OC)cc2)[nH]1)CCc1ccc(F)cc1F` [Example 353, N-[5-[4,5-bis(4-methoxyphenyl)-1H-imidazol-2-ylthio]pentyl]-2,4-difluoro-N-heptylbenzeneethaneamine], the results for the IC50 in assay [1] (setting [3]) and in assay [2] (setting [4]) were 0.24 µM and 0.08 µM, respectively.

For `CCCCCCCN(CCCCCSc1nc(-c2ccc(N(C)C)cc2)c(-c2ccc(N(C)C)cc2)[nH]1)C(=O)CC1CCCCC1` [Example 354], the IC50 in assay [1] (setting [3]) is 0.05 µM; in assay [2] (setting [4]), 0.02 µM.

On to `CCCCCCCN(CCCCCSc1nc(-c2ccc(OC)cc2)c(-c2ccc(OC)cc2)[nH]1)C(=O)CC1CCCCC1` [Example 355, N-[5-[4,5-bis(4-methoxyphenyl)-1H-imidazol-2-ylthio]pentyl]-N-heptylcyclohexaneacetamide], for which the 50% inhibitory concentration (IC50) turned out to be 0.01 µM in assay [1] (setting [3]) and 0.03 µM in assay [2] (setting [4]).

For `CCCCCCCN(CCCCCSc1nc(-c2ccccc2)c(-c2ccccc2)[nH]1)C(=O)OCC(C)C` [Example 403, (2-Methylpropyl) [5-(4,5-diphenyl-1H-imidazol-2-ylthio)pentyl]heptylcarbamate], the results for the IC50 in assay [1] (setting [3]) and in assay [2] (setting [4]) were 0.035 µM and 0.5 µM, respectively.

As for `CCCCCCCN(CCCCCSc1nc(-c2ccccc2)c(-c2ccccc2)[nH]1)C(=O)OCC` [Example 404, Ethyl [5-(4,5-diphenyl-1H-imidazol-2-ylthio)pentyl]heptylcarbamate], the IC50 in assay [1] (setting [3]) stood at 0.033 µM; in assay [2] (setting [4]) it was 0.5 µM.

For `CCCCCCCCOC(=O)N(CCCCCCC)CCCCCSc1nc(-c2ccccc2)c(-c2ccccc2)[nH]1` [Example 405, Octyl [5-(4,5-diphenyl-1H-imidazol-2-ylthio)pentyl]heptylcarbamate], the half-inhibitory concentration (IC50) in assay [1] (setting [3]) was 0.5 µM; in assay [2] (setting [4]) it was 3.9 µM.

Take `CCCCCCCN(CCCCCSc1nc(-c2ccccc2)c(-c2ccccc2)[nH]1)C(=O)Oc1ccc(F)cc1` [Example 406, (4-fluorophenyl)[5-(4,5-diphenyl-1H-imidazol-2-ylthio)pentyl]heptylcarbamate]: the IC50 came to 0.01 µM in assay [1] (setting [5]) and 0.6 µM in assay [2] (setting [4]).

In the case of `CCCCCCCN(CCCCCSc1nc(-c2ccccc2)c(-c2ccccc2)[nH]1)C(=O)OCCC` [Example 407, Propyl [5-(4,5-diphenyl-1H-imidazol-2-ylthio)pentyl]heptylcarbamate], the IC50 stood at 0.04 µM in assay [1] (setting [3]) and 0.8 µM in assay [2] (setting [4]).

Regarding `CCCCCCCN(CCCCCSc1nc(-c2ccccc2)c(-c2ccccc2)[nH]1)C(=O)OCc1ccccc1` [Example 408, (Phenylmethyl) [5-(4,5-diphenyl-1H-imidazol-2-ylthio)pentyl]heptylcarbamate], the 50% inhibitory concentration (IC50) in assay [1] (setting [3]) was 0.009 µM; in assay [2] (setting [4]), 1.3 µM.

For the molecule `CCCCCCCN(CCCCCSc1nc(-c2ccc(OC)cc2)c(-c2ccc(OC)cc2)[nH]1)C(=O)Oc1ccccc1` [Example 410], the 50% inhibitory concentration (IC50) in assay [1] (setting [5]) is 0.64 µM; in assay [2] (setting [4]), 0.03 µM.

In the case of `CCCCCCCN(CCCCCSc1nc(C(C)C)c(C(C)C)[nH]1)C(=O)Oc1ccccc1` [Example 411, phenyl N-[5-(4,5-bis(1-methylethyl)-1H-imidazol-2-ylthio]pentyl]-N-heptylcarbamat], the IC50 in assay [1] (setting [5]) was determined as 0.31 µM; in assay [2] (setting [4]) it was 0.5 µM.

In the case of `CCCCCCCN(CCCCCSc1nc(-c2ccc(OC)cc2)c(-c2ccc(OC)cc2)[nH]1)C(=O)OCC(C)C` [Example 457], the results for the IC50 in assay [1] (setting [3]) and in assay [2] (setting [4]) were 0.834 µM and 0.1 µM, respectively.

On to `CCCCCCCNCCCCCSc1nc(-c2ccccc2)c(-c2ccccc2)[nH]1` [N-[5(4,5-diphenyl-1H-imidazol-2-ylthio)pentyl]-1-heptanaminehydrochloride], for which the 50% inhibitory concentration (IC50) in assay [1] (intermediate, read-out: IC50 in the in vitro ACAT assay) was 0.1 µM; in assay [2] (intermediate, read-out: IC50 in the macrophage assay), 6 µM.

Source of the values: US5166214A, “Use of imidazoles for the treatment of atherosclerosis” (priority 1990, dated 1992).
